In patent US20070298105A1, “METHODS OF TREATING CONDITIONS BY SUSTAINED RELEASE ADMINISTRATION OF BENZIMIDAZOLE DERIVATIVES” (priority 2006, published 2007):
Where two headings read alike, the source gives them in different places.

Legend:
[1] = Colonic intubation study: plasma pharmacokinetics of rabeprazole and esomeprazole; format: in vivo, human; details: male, human, plasma, po, 40 mg; for AUC(0-inf): read-out: AUCinf (mean)
Experimental: A single-dose, open-label, partially randomized, five-treatment, five-period, crossover pilot study was performed in healthy males to determine relative pharmacokinetics of rabeprazole, and comparators when dosed either orally or colonically. The study was a single dose study with blood sampling up to 24 hours following initiation. […] Colonic dosing occurred using a nasoenteral tube. Treatment C was a single 20 mg dose of rabeprazole sodium oral enteric coated tablets dosed orally. Treatment D was placebo (200 mL of water) dosed orally. […] For subjects whose apparent elimination rate constant [k] could not be properly determined, the AUC to infinity [AUCinf]) was calculated based on the median apparent elimination constant [k] of the subjects with available t1/2 values in the same treatment period. […] The intragastric pH profile were determined.

[2] = system: intragastric pH; assay: Colonic intubation study: intragastric pH profile (percent of time with pH >4); format: in vivo, human; details: for Mean percent of time with pH >4: TRT E: esomeprazole 40 mg oral tablet
Experimental: A single-dose, open-label, partially randomized, five-treatment, five-period, crossover pilot study was performed in healthy males to determine relative pharmacokinetics of rabeprazole, and comparators when dosed either orally or colonically. The study was a single dose study with blood sampling up to 24 hours following initiation.
Treatments A and B were rabeprazole sodium solution dosed to provide 30 and 60 mg, respectively, over 20 hours in the transverse colon of the subjects. Colonic dosing occurred using a nasoenteral tube. Treatment C was a single 20 mg dose of rabeprazole sodium oral enteric coated tablets dosed orally. Treatment D was placebo (200 mL of water) dosed orally.
The intragastric pH profile was analyzed based on the percentage of time that the intragastric pH was above 4, which was calculated for the full 24 hours. In addition, the mean pH value over 5 time intervals of 6 hours each during the 30-hr sampling time was also estimated.

[3] = TRT E: esomeprazole 40 mg oral tablet, N = 19
[4] = TRT E: esomeprazole 40 mg oral tablet, subset N = 14

**Q.** With `COc1ccc2nc([S@@+]([O-])Cc3ncc(C)c(OC)c3C)[nH]c2c1` [Esomeprazole] as the compound, how does the AUC(0-t) [1, 3] read?
**A.** 1870 ng·h/mL

**Q.** What about the AUC(0-inf) [1, 3] of the same compound?
**A.** 1910 ng·h/mL

**Q.** What about the half-life ([1]; TRT E: esomeprazole 40 mg oral tablet, N = 19, read-out: t1/2 (median) (converted)) of the same compound?
**A.** 48 min

**Q.** What about the Cmax ([1]; TRT E: esomeprazole 40 mg oral tablet, single dose, healthy males, N = 19) of the same compound?
**A.** 727 ng/mL

**Q.** What about the AUC(0-t) [1, 4] of the same compound?
**A.** 2270 ng·h/mL

**Q.** What about the Cmax [1, 4] of the same compound?
**A.** 800 ng/mL

**Q.** And the AUC(0-inf) [1, 4]?
**A.** 2310 ng·h/mL

**Q.** What about the half-life ([1]; oral administration of 40 mg esomeprazole, read-out: median half-life (converted)) of the same compound?
**A.** ~60 min

**Q.** What about the “Mean percent of time with pH >4” value ([2]; 0-6 hr (10 am-4 pm), N = 19) of the same compound?
**A.** 57.0%

**Q.** What about the “Mean percent of time with pH >4” value ([2]; 0-6 hr (10 am-4 pm), subset N = 14) of the same compound?
**A.** 64.3%

**Q.** And the “Mean percent of time with pH >4” value ([2]; 6-12 hr (4 pm-10 pm), N = 19)?
**A.** 76.3%

**Q.** What about the “Mean percent of time with pH >4” value ([2]; 6-12 hr (4 pm-10 pm), subset N = 14) of the same compound?
**A.** 87.0%

**Q.** What about the “Mean percent of time with pH >4” value ([2]; 12-18 hr (10 pm-4 am), N = 19) of the same compound?
**A.** 36.6%

**Q.** What about the “Mean percent of time with pH >4” value ([2]; 12-18 hr (10 pm-4 am), subset N = 14) of the same compound?
**A.** 42.8%

**Q.** And the “Mean percent of time with pH >4” value ([2]; 18-24 hr (4 am-10 am), N = 19)?
**A.** 56.0%

**Q.** What about the “Mean percent of time with pH >4” value ([2]; 18-24 hr (4 am-10 am), subset N = 14) of the same compound?
**A.** 60.1%

**Q.** And the “Mean percent of time with pH >4” value ([2]; 24-30 hr (10 am-4 pm), N = 19)?
**A.** 49.5%

**Q.** And the “Mean percent of time with pH >4” value ([2]; 24-30 hr (10 am-4 pm), subset N = 14)?
**A.** 57.1%

**Q.** What about the “Mean percent of time with pH >4” value ([2]; 24-hr average, N = 19) of the same compound?
**A.** 56.5%

**Q.** And the “Mean percent of time with pH >4” value ([2]; 24-hr average, N = 19, listed as esomeprazole)?
**A.** 57%

**Q.** What about the “Mean percent of time with pH >4” value ([2]; 24-hr average, subset N = 14) of the same compound?
**A.** 63.5%

**Q.** And the “effect on percentage of time with pH >4 compared to placebo” value ([2]; first 6 hours of treatment, esomeprazole treatment)?
**A.** significant increase
